Results on 2 compounds are retold here after patent US8841233B2, “Herbicidal compositions comprising 4-amino-3-chloro-5-fluoro-6-(4-chloro-2-fluoro-3-methoxyphenyl) pyridine-2-carboxylic acid or a derivative thereof and 4-hydroxyphenyl-pyruvate dioxygenase (HPPD) inhibitors” (Dow Agrosciences LLC, priority 2012, dated 2014).

“And” between values parts separate entries of the source, which are not always exact repeats. Equal values may be shown once.

This experiment concerns ECHCG. The experiment in a line: In-water applied weed control, transplanted paddy rice, greenhouse (Example II).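 As to Visual Weed Control (%) - 20 DAA ECHCG Obs: visual score 0 no injury to 100 complete kill versus untreated plants.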 The format is in vivo, Echinochloa crusgalli (L.) Beauv. The protocol: Evaluation of in-Water Applied Herbicidal Mixtures for Weed Control in Transplanted Paddy Rice
Weed seeds or nutlets of the desired test plant species were planted in puddled soil (mud) prepared by mixing a shredded, non-sterilized mineral soil (50.5 percent silt, 25.5 percent clay, and 24 percent sand, with a pH of about 7.6 and an organic matter content of about 2.9 percent) and water at a 1:1 volumetric ratio. The prepared mud was dispensed in 365 mL aliquots into 16-ounce (oz.) non-perforated plastic pots with a surface area of 86.59 square centimeters (cm^2) leaving a headspace of 3 centimeters (cm) in each pot. Mud was allowed to dry overnight prior to planting or transplanting. Rice seeds were planted in Sun Gro MetroMix® 306 planting mixture, which typically has a pH of 6.0 to 6.8 and an organic matter content of about 30 percent, in plastic plug trays. Seedlings at the second or third leaf stage of growth were transplanted into 840 mL of mud contained in 32-oz. non-perforated plastic pots with a surface area of 86.59 cm^2 4 days prior to herbicide application. The paddy was created by filling the headspace of the pots with 2.5 to 3 cm of water. When required to ensure good germination and healthy plants, a fungicide treatment and/or other chemical or physical treatment was applied. The plants were grown for 4-22 days in a greenhouse with an approximate 14 h photoperiod which was maintained at about 29′C during the day and 26° C. during the night. Nutrients were added as Osmocote® (19:6:12, N:P:K+ minor nutrients) at 2 g per 16-oz. pot and 4 g per 32-oz. pot. Water was added on a regular basis to maintain the paddy flood, and supplemental lighting was provided with overhead metal halide 1000-Watt lamps as necessary. The plants were employed for testing when they reached the first through fourth true leaf stage.
Treatments consisted of the acid or esters of 4-amino-3-chloro-5-fluoro-6-(4-chloro-2-fluoro-3-methoxy-phenyl)pyridine-2-carboxylic acid (compound A) each formulated as an SC (suspension concentrate) and various herbicidal components alone and in combination. Forms of compound A were applied on an acid equivalent basis.
Other herbicidal components were applied on an active ingredient basis and included 4-hydroxyphenyl pyruvate dioxygenase (HPPD)-inhibiting herbicides mesotrione formulated as Callisto®, sulcotrione formulated as Mikado®, pyrazolynate formulated as Sunbird® 10% GR, and benzobicyclon formulated as Benzobicyclon 3.5% or technical material.
Treatment requirements for each compound or herbicidal component were calculated based upon the rates being tested, the concentration of active ingredient or acid equivalent in the formulation, an application volume of 2 mL per component per pot, and an application area of 86.59 cm^2 per pot.
For formulated compounds, a measured amount was placed in an individual 100 or 200 mL glass vial and was dissolved in a volume of 1.25% (v/v) Agri-Dex® crop oil concentrate to obtain application solutions.
For technical grade compounds, a weighed amount was placed in an individual 100 to 200 mL glass vial and was dissolved in a volume of acetone to obtain concentrated stock solutions. […] The concentrated stock solutions obtained were diluted with an equivalent volume of an aqueous mixture containing 2.5% (v/v) crop oil concentrate so that the final application solutions contained 1.25% (v/v) crop oil concentrate.
Applications were made by injecting with a pipetter appropriate amounts of the application solutions, individually and sequentially, into the aqueous layer of the paddy. Control plants were treated in the same manner with the solvent blank. Applications were made so that all treated plant material received the same concentrations of acetone and crop oil concentrate.
The treated plants and control plants were placed in a greenhouse as described above and water was added as needed to maintain a paddy flood. […]

For `COc1c(Cl)ccc(-c2nc(C(=O)OCc3ccccc3)c(Cl)c(N)c2F)c1F` [Compound A Benzyl Ester, benzyl ester of 4-amino-3-chloro-5-fluoro-6-(4-chloro-2-fluoro-3-methoxy-phenyl)pyridine-2-carboxylic acid], the “Visual Weed Control (%) - 22 DAA ECHCG Obs” value is, setting by setting: (8.75 gae/ha) 45%; (17.5 gae/ha) 90%.

With `COc1c(Cl)ccc(-c2nc(C(=O)O)c(Cl)c(N)c2F)c1F` [Compound A Acid, 4-amino-3-chloro-6-(4-chloro-2-fluoro-3-methoxyphenyl)-5-fluoropyridine-2-carboxylic acid], the “Visual Weed Control (%) - 21 DAA ECHCG Obs” value reads like this: (8.75 gae/ha) 20%; (17.5 gae/ha) 30%. Also, the “Visual Weed Control (%) - 20 DAA ECHCG Obs” value was 35% and 30% (17.5 gae/ha); 55% (35 gae/ha).
